Data as given in paper PMC11480411, “Mucosal sugars delineate pyrazine vs pyrazinone autoinducer signaling in Klebsiella oxytoca” (Nature Communications, 2024).

Legend:
Test in all cases: PRESTO-Tango GPCR screen
Assay type in all cases: cell-based
Settings in all cases: 100 µM
F2RL1 = target: T1, F2RL1 (Homo sapiens, UniProt P55085)
T1 construct: purchased PRESTO-Tango GPCR kit (Roth lab / Addgene)
Summary of the method: (§1)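 Cells were HTLA, a HEK293 line carrying β-arrestin-TEV and tTA-luciferase, transfected with each receptor-Tango plasmid, then exposed to compound at 100 μM final for 20 h.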

ADRA2C = target: T2, ADRA2C (Homo sapiens, UniProt P18825)
T2 construct: purchased PRESTO-Tango GPCR kit (Roth lab / Addgene)
Summary of the method: as §1

CALCRb = target: T3, CALCRb (Homo sapiens, UniProt P30988)
T3 construct: purchased PRESTO-Tango GPCR kit (Roth lab / Addgene)
Summary of the method: as §1

CYSLTR1 = target: T4, CYSLTR1 (Homo sapiens, UniProt Q9Y271)
T4 construct: purchased PRESTO-Tango GPCR kit (Roth lab / Addgene)
Summary of the method: as §1

SSTR1 = target: T5, SSTR1 (Homo sapiens, UniProt P30872)
T5 construct: purchased PRESTO-Tango GPCR kit (Roth lab / Addgene)
Summary of the method: as §1

GPR45 = target: T6, GPR45 (Homo sapiens, UniProt Q9Y5Y3)
T6 construct: purchased PRESTO-Tango GPCR kit (Roth lab / Addgene)
Summary of the method: as §1

GPR12 = target: T7, GPR12 (Homo sapiens, UniProt P47775)
T7 construct: purchased PRESTO-Tango GPCR kit (Roth lab / Addgene)
Summary of the method: as §1

GPR148 = target: T8, GPR148 (Homo sapiens, UniProt Q8TDV2)
T8 construct: purchased PRESTO-Tango GPCR kit (Roth lab / Addgene)
Summary of the method: as §1

GRM4 = target: T9, GRM4 (Homo sapiens, UniProt Q14833)
T9 construct: purchased PRESTO-Tango GPCR kit (Roth lab / Addgene)
Summary of the method: as §1

CRHR1 = target: T10, CRHR1 (Homo sapiens, UniProt P34998)
T10 construct: purchased PRESTO-Tango GPCR kit (Roth lab / Addgene)
Summary of the method: as §1

GPR55 = target: T11, GPR55 (Homo sapiens, UniProt Q9Y2T6)
T11 construct: purchased PRESTO-Tango GPCR kit (Roth lab / Addgene)
Summary of the method: as §1

NMUR1 = target: T12, NMUR1 (Homo sapiens, UniProt Q9HB89)
T12 construct: purchased PRESTO-Tango GPCR kit (Roth lab / Addgene)
Summary of the method: as §1

PTGER4 = target: T13, PTGER4 (Homo sapiens, UniProt P35408)
T13 construct: purchased PRESTO-Tango GPCR kit (Roth lab / Addgene)
Summary of the method: as §1

PTGER3 = target: T14, PTGER3 (Homo sapiens, UniProt P43115)
T14 construct: purchased PRESTO-Tango GPCR kit (Roth lab / Addgene)
Summary of the method: as §1

GPR68 = target: T15, GPR68 (Homo sapiens, UniProt Q15743)
T15 construct: purchased PRESTO-Tango GPCR kit (Roth lab / Addgene)
Summary of the method: as §1

CCR5 = target: T16, CCR5 (Homo sapiens, UniProt P51681)
T16 construct: purchased PRESTO-Tango GPCR kit (Roth lab / Addgene)
Summary of the method: as §1

P2RY8 = target: T17, P2RY8 (Homo sapiens, UniProt Q86VZ1)
T17 construct: purchased PRESTO-Tango GPCR kit (Roth lab / Addgene)
Summary of the method: as §1

AVPR1B = target: T18, AVPR1B (Homo sapiens, UniProt P47901)
T18 construct: purchased PRESTO-Tango GPCR kit (Roth lab / Addgene)
Summary of the method: as §1

GPR97 = target: T19, GPR97 (Homo sapiens, UniProt Q86Y34)
T19 construct: purchased PRESTO-Tango GPCR kit (Roth lab / Addgene)
Summary of the method: as §1

ADCYAP1R1 = target: T20, ADCYAP1R1 (Homo sapiens, UniProt P41586)
T20 construct: purchased PRESTO-Tango GPCR kit (Roth lab / Addgene)
Summary of the method: as §1

MRGPRX2 = target: T21, MRGPRX2 (Homo sapiens, UniProt Q96LB1)
T21 construct: purchased PRESTO-Tango GPCR kit (Roth lab / Addgene)
Summary of the method: as §1

ADORA3 = target: T22, ADORA3 (Homo sapiens, UniProt P0DMS8)
T22 construct: purchased PRESTO-Tango GPCR kit (Roth lab / Addgene)
Summary of the method: as §1

LPAR5 = target: T23, LPAR5 (Homo sapiens, UniProt Q9H1C0)
T23 construct: purchased PRESTO-Tango GPCR kit (Roth lab / Addgene)
Summary of the method: as §1

MTNR1B = target: T24, MTNR1B (Homo sapiens, UniProt P49286)
T24 construct: purchased PRESTO-Tango GPCR kit (Roth lab / Addgene)
Summary of the method: as §1

CCR2 = target: T25, CCR2 (Homo sapiens, UniProt P41597)
T25 construct: purchased PRESTO-Tango GPCR kit (Roth lab / Addgene)
Summary of the method: as §1

ADORA1 = target: T26, ADORA1 (Homo sapiens, UniProt P30542)
T26 construct: purchased PRESTO-Tango GPCR kit (Roth lab / Addgene)
Summary of the method: as §1

GRPR = target: T27, GRPR (Homo sapiens, UniProt P30550)
T27 construct: purchased PRESTO-Tango GPCR kit (Roth lab / Addgene)
Summary of the method: as §1

GPR173 = target: T28, GPR173 (Homo sapiens, UniProt Q9NS66)
T28 construct: purchased PRESTO-Tango GPCR kit (Roth lab / Addgene)
Summary of the method: as §1

GPR32 = target: T29, GPR32 (Homo sapiens, UniProt O75388)
T29 construct: purchased PRESTO-Tango GPCR kit (Roth lab / Addgene)
Summary of the method: as §1

GPR75 = target: T30, GPR75 (Homo sapiens, UniProt O95800)
T30 construct: purchased PRESTO-Tango GPCR kit (Roth lab / Addgene)
Summary of the method: as §1

LPAR6 = target: T31, LPAR6 (Homo sapiens, UniProt P43657)
T31 construct: purchased PRESTO-Tango GPCR kit (Roth lab / Addgene)
Summary of the method: as §1

AGTR2 = target: T32, AGTR2 (Homo sapiens, UniProt P50052)
T32 construct: purchased PRESTO-Tango GPCR kit (Roth lab / Addgene)
Summary of the method: as §1

MC3R = target: T33, MC3R (Homo sapiens, UniProt P41968)
T33 construct: purchased PRESTO-Tango GPCR kit (Roth lab / Addgene)
Summary of the method: as §1

GPR63 = target: T34, GPR63 (Homo sapiens, UniProt Q9BZJ6)
T34 construct: purchased PRESTO-Tango GPCR kit (Roth lab / Addgene)
Summary of the method: as §1

FPR2 = target: T35, FPR2 (Homo sapiens, UniProt P25090)
T35 construct: purchased PRESTO-Tango GPCR kit (Roth lab / Addgene)
Summary of the method: as §1

T10 sequence (P34998 24-415): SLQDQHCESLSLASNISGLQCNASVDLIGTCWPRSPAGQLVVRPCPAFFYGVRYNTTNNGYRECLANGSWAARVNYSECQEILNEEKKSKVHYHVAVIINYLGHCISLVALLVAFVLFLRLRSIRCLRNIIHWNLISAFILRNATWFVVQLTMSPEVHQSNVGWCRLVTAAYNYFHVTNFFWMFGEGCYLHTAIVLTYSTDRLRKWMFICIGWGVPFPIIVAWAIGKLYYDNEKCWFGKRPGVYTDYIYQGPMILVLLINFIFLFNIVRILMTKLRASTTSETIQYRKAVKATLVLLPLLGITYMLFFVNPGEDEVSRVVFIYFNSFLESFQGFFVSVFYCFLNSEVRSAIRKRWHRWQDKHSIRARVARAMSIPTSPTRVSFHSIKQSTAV
T22 sequence (P0DMS8 whole entry): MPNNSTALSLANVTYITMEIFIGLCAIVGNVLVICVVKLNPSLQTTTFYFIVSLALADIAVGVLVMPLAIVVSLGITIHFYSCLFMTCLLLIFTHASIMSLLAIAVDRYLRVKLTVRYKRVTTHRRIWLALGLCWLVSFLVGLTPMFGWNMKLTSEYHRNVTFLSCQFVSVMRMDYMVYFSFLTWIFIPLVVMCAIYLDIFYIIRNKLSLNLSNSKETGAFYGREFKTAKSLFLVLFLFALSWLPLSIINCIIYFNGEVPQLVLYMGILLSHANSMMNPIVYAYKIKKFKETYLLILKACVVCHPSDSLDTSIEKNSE
T1 sequence (P55085 26-397): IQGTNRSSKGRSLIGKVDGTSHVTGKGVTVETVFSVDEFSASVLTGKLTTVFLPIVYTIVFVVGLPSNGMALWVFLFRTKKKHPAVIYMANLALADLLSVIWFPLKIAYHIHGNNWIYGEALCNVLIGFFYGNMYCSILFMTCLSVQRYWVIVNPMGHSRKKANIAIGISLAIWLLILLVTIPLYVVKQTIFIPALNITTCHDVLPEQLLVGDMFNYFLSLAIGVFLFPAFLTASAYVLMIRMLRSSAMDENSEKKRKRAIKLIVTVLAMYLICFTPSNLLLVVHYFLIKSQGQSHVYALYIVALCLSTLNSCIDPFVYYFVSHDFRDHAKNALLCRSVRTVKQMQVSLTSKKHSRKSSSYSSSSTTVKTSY
T15 sequence (Q15743 whole entry): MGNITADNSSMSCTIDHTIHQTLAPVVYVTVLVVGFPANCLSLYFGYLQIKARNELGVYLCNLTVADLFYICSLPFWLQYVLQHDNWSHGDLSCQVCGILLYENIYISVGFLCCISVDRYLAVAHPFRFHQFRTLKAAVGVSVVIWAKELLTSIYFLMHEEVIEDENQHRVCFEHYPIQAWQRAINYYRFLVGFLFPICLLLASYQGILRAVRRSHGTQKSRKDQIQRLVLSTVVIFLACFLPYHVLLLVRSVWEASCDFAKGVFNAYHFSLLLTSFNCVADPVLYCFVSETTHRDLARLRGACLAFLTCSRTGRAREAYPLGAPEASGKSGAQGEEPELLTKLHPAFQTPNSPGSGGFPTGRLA
T20 sequence (P41586 21-468): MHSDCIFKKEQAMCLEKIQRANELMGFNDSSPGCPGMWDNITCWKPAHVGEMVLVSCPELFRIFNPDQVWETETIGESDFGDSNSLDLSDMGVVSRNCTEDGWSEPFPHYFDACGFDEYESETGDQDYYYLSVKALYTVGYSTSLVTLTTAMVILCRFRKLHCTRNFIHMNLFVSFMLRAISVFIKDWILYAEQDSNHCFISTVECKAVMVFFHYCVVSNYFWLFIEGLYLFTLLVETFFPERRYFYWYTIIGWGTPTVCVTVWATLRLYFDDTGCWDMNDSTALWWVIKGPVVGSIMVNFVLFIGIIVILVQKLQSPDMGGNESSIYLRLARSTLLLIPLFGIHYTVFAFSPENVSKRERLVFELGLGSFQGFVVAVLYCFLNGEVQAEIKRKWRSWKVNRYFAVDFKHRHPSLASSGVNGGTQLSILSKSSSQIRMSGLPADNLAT
T21 sequence (Q96LB1 whole entry): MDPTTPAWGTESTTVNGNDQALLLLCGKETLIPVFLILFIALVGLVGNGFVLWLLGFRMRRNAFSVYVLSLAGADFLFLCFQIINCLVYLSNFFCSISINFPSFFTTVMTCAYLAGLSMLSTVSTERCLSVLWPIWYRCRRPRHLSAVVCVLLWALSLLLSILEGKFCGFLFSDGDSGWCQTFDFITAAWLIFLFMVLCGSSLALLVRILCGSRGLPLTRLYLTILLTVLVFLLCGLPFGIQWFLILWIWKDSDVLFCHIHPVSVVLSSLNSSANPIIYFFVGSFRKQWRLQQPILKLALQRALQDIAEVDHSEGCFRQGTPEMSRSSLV
T29 sequence (O75388 whole entry): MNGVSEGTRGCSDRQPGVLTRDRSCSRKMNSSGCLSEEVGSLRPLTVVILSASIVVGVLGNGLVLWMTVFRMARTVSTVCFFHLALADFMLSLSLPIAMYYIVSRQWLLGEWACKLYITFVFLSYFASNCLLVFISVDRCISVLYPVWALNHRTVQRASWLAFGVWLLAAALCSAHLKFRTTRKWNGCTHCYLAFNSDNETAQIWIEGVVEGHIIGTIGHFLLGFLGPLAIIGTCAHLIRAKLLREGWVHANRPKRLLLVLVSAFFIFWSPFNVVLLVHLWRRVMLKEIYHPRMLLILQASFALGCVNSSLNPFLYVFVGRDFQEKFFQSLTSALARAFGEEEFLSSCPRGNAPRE
T28 sequence (Q9NS66 whole entry): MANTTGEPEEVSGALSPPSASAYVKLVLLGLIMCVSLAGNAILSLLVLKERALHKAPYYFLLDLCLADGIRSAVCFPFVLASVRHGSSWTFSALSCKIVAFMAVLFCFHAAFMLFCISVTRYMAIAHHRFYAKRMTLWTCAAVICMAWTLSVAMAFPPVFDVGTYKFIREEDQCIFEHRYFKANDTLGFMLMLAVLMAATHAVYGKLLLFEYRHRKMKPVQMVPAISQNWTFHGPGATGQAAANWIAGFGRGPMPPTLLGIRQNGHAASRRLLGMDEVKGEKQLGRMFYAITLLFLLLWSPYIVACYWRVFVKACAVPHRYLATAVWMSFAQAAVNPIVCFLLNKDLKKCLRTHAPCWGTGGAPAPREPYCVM
T33 sequence (P41968 whole entry): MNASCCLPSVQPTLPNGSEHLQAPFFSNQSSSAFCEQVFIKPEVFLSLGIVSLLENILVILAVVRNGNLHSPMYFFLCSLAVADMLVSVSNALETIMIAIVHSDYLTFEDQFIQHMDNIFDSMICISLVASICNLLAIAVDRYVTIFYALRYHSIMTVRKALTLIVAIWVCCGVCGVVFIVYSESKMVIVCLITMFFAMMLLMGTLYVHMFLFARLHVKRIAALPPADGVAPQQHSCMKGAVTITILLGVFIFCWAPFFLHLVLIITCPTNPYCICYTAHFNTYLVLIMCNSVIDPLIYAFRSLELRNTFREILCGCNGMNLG
T11 sequence (Q9Y2T6 whole entry): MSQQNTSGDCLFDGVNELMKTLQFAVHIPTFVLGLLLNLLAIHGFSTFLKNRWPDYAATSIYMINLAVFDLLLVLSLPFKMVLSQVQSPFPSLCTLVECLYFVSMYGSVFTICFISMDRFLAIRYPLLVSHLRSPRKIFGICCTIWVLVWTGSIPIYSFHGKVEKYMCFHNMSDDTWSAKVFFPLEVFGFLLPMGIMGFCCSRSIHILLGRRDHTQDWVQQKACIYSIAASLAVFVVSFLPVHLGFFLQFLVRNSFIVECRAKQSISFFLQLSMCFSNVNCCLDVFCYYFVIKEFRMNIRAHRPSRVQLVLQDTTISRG
T12 sequence (Q9HB89 whole entry): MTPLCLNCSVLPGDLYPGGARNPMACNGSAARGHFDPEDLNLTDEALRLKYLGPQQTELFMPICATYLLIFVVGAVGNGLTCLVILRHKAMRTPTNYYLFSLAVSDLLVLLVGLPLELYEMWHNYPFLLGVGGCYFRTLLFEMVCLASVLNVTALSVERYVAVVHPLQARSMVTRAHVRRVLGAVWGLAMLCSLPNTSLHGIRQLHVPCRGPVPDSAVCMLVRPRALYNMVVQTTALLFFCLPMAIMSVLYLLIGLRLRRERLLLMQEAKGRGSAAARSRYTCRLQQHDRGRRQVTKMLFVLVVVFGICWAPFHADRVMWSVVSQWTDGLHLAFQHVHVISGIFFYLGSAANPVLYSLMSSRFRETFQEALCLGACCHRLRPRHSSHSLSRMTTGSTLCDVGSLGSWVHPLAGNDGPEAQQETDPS
T32 sequence (P50052 whole entry): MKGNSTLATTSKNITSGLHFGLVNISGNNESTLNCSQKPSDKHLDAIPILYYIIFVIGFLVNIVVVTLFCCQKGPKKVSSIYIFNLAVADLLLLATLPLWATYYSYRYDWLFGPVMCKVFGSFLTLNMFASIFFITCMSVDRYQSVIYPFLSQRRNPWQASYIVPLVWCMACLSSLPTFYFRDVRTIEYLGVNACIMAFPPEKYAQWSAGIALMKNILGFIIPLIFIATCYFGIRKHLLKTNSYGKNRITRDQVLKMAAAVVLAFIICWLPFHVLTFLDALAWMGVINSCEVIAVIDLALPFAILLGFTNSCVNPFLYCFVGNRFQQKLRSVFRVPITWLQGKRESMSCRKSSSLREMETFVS
T25 sequence (P41597 whole entry): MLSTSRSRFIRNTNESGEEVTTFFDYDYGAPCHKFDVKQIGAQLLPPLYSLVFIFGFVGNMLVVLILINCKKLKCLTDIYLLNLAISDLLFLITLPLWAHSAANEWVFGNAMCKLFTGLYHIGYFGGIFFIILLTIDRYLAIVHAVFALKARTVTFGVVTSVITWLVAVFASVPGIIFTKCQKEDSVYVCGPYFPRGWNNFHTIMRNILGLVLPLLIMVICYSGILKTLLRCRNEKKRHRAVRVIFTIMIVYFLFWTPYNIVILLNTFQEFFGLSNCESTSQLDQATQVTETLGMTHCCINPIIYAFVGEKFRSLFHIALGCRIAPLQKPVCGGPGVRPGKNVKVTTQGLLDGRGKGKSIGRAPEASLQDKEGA

| SMILES | GPCR activation (heatmap value) (F2RL1) | GPCR activation (heatmap value) (ADRA2C) | GPCR activation (heatmap value) (CALCRb) | GPCR activation (heatmap value) (CYSLTR1) | GPCR activation (heatmap value) (SSTR1) | GPCR activation (heatmap value) (GPR45) | GPCR activation (heatmap value) (GPR12) | GPCR activation (heatmap value) (GPR148) | GPCR activation (heatmap value) (GRM4) | GPCR activation (heatmap value) (CRHR1) | GPCR activation (heatmap value) (GPR55) | GPCR activation (heatmap value) (NMUR1) | GPCR activation (heatmap value) (PTGER4) | GPCR activation (heatmap value) (PTGER3) | GPCR activation (heatmap value) (GPR68) | GPCR activation (heatmap value) (CCR5) | GPCR activation (heatmap value) (P2RY8) | GPCR activation (heatmap value) (AVPR1B) | GPCR activation (heatmap value) (GPR97) | GPCR activation (heatmap value) (ADCYAP1R1) | further results |
| --- | --- | --- | --- | --- | --- | --- | --- | --- | --- | --- | --- | --- | --- | --- | --- | --- | --- | --- | --- | --- | --- |
| CC(C)Cc1ncc(CCCCNC(=N)N)[nH]c1=O [3-Homo] | -0.2678 | 0.6954 | -1.592 | -0.2334 | -0.2346 | -0.6461 | 0.07278 | 0.1551 | -0.1574 | 0.4025 | -0.519 | 0.8213 | 0.407 | -1.204 | -0.3643 | 0.4723 | 0.2867 | -0.01402 | -0.2469 | 0.1231 | GPCR activation (heatmap value) (MRGPRX2): -0.6668; GPCR activation (heatmap value) (ADORA3): -0.404; GPCR activation (heatmap value) (LPAR5): 0.1689; GPCR activation (heatmap value) (MTNR1B): 0.08839; GPCR activation (heatmap value) (CCR2): -0.2415; GPCR activation (heatmap value) (ADORA1): 0.08121; GPCR activation (heatmap value) (GRPR): -0.6902; GPCR activation (heatmap value) (GPR173): -0.8728; GPCR activation (heatmap value) (GPR32): -0.1389; GPCR activation (heatmap value) (GPR75): 0.5978; GPCR activation (heatmap value) (LPAR6): 0.3664; GPCR activation (heatmap value) (AGTR2): 0.1974; GPCR activation (heatmap value) (MC3R): -0.2762; GPCR activation (heatmap value) (GPR63): 0.374; GPCR activation (heatmap value) (FPR2): 0.05882 |
| CC(C)Cc1ncc(CCCNC(=N)N)[nH]c1=O [compound 3] | 0.6997 | 0.2266 | -0.6231 | 0.3416 | 0.2369 | 0.4781 | 0.5588 | 0.6105 | -0.2331 | -0.3752 | 0.5927 | -0.191 | 0.5017 | 0.03461 | 0.3673 | -0.6917 | 0.4444 | 0.6298 | -0.1675 | 0.214 | GPCR activation (heatmap value) (MRGPRX2): 0.1651; GPCR activation (heatmap value) (ADORA3): -0.3342; GPCR activation (heatmap value) (LPAR5): 0.04943; GPCR activation (heatmap value) (MTNR1B): -0.5682; GPCR activation (heatmap value) (CCR2): 0.059; GPCR activation (heatmap value) (ADORA1): 0.2527; GPCR activation (heatmap value) (GRPR): 0.1678; GPCR activation (heatmap value) (GPR173): -0.2495; GPCR activation (heatmap value) (GPR32): 0.07937; GPCR activation (heatmap value) (GPR75): -1.251; GPCR activation (heatmap value) (LPAR6): 0.5638; GPCR activation (heatmap value) (AGTR2): -0.3239; GPCR activation (heatmap value) (MC3R): 0.4161; GPCR activation (heatmap value) (GPR63): 0.05297; GPCR activation (heatmap value) (FPR2): 0.522 |
